Experimental data published in patent publication US5716950A, “Diazacycloalkanealkylsulfonamide derivatives” (Nippon Shoji Kabushiki Kaisha, priority 1994, dated 1998).
Where two headings read alike, the source gives them in different places.

Assays:
[1] = test system: passive cutaneous anaphylaxis (PCA); experiment: Activity of suppressing passive cutaneous anaphylaxis (PCA); format: in vivo, Male Wistar rats; conditions: Rattus norvegicus, po, 1 h, 10 mg/kg-po, 1 hour before antigen challenge; read-out: % suppression of rat PCA
Method: Test compounds were examined on their antiallergic activities. […] After 48 hours, 1.0 ml of 0.5 % Evans Blue saline solution containing DNP.BSA (1 mg in protein) was injected through the tail vein to induce allergic reaction. After 30 minutes, the rats were sacrificed by bleeding and the skin of back where dye was leaked out was flayed and put it into 20 ml test tube with ground stopper. Thereto was added 1.0 ml of 1N KOH aqueous solution and then it was allowed to stand at 37° C. in incubator overnight for lysing. To this solution was added 8.3 ml of a mixture of acetone and 0.6N phosphoric acid (13:5) and the mixture was mixed well and then was filtered to remove the insoluble materials.
The test compounds were administered orally 1 hour before the antigen challenge. Suppression rate was expressed by percentage to the value in control where 0.5% aqueous methylcellulose solution was orally administered.

[2] = test system: extracted ileum (histamine contraction); experiment: Antihistaminic activity: suppression of histamine-induced contraction of extracted ileum; set-up: species or system Female Hartley guinea pig; conditions: histamine 3×10^-7 M; guinea pig ileum; 50% suppression of contraction; read-out: anti-His in extracted ileum EC50
Method: Female Hartley guinea pig (weighing 500 to 650 g) were sacrificed and the ileum (length of about 10 to 25 cm) was extracted from the ileocecum to prepare a specimen (length of 3 cm). […] After allowing to stand for 60 minutes to make the specimen stable, a histamine (3×10^-7 M) was applied to the specimen at single application. Contraction of the specimen was determined and recorded using isotonic transducer. After repeating application of a histamine to make the contraction constant, a diluted solution of the test compound was applied. Three minutes after the application, a histamine was then added and an activity of suppressing contraction was examined.

[3] = test system: male ICR mice; experiment: Toxicity Test (mouse acute toxicity, minimum lethal dose); format: in vivo; conditions: po, observed for 24 hours, head prints (10 mg/kg-po)
From the text: The test compounds were orally administered to male ICR mice (weighing to 30 g) after fasting overnight. […] The results were expressed by minimum lethal dose. Toxicity of any compounds of the present invention were weaker than that of ketotifen which was a reference compound.

[4] = test system: mouse biphasic allergic dermal reaction; experiment: Mouse Biphasic Allergic Dermal Reaction; format: in vivo, Female Balb/c mice; conditions: for inhibition in vivo at 0.1 mg/kg / inhibition in vivo at 1 mg/kg: Mus musculus, oral; for suppression of the late allergic reaction (in words): edema after 24 hours
Method: Female Balb/c mice (weighing 18 to 25 g) were subjected to passive sensitization by intravenous administration of 1 ml of anti-DNP monoclonal IgE antibody showing 1:1024 of antibody titer. 24 hours after the sensitization, 25 μl of 0.15% dinitrofluorobenzene (DNFB) were applied to both sides of right and left auricles of mouse for inducing allergic reactions. Thickness of auricles were measured using Dial Thickness Gauge before the challenge with DNFB, and 1 and 24 hours after the challenge. And then, increase in thickness of auricles at 1 hour after the challenge (edema caused by immediate allergic reaction) and that at 24 hours after the challenge (edema caused by late allergic reaction) were calculated against the thickness of auricles before the challenge with DNFB, respectively.
Suppression rate was expressed by relative ratio (%) to the value in control in which a solvent was administered.
Test compounds, diphenhydramine which is a existing classical antihistamic drug, amlexanox which is an antiallergic drug and dexamethasone which is a steroidal drug were administered orally (partly intraperitoneally) once before antigen challenge.
The above test was performed by using a mouse biphasic allergic dermal reaction model which was a new model [see, Sakurai T, Inagaki, N. and Nagai, H Life Sci., 54, PL291-295 (1994)]. In this model, the immediate allergic reaction was induced by mediator release from mast cell at 1 hour after the challenge, and the late allergic reaction with inflammatory cells such as eosinophil (edema after 24 hours) was induced after 24 hours from the challenge.

[5] = 1 h, read-out: immediate edema (1 hr) suppression (%)
[6] = 24 h, read-out: late edema (24 hr) suppression (%)

Row | SMILES | inhibition in vivo at 10 mg/kg [1] | EC50 [2] | mouse acute toxicity (lethal dose) [3] | inhibition in vivo at 0.1 mg/kg [4, 5] | inhibition in vivo at 1 mg/kg [4, 5] | inhibition in vivo at 0.1 mg/kg [4, 6] | inhibition in vivo at 1 mg/kg [4, 6] | suppression of the late allergic reaction (in words) [4]
1 | CCNS(=O)(=O)CCCCCCN1CCN(C(c2ccccc2)c2ccc(Cl)cc2)CC1 (centres unmarked) [Example 29] | 95.7% | 750 nM | > 500 mg/kg |  |  |  |  | 
2 | CCNS(=O)(=O)CCCCCN1CCN(C(c2ccc(F)cc2)c2ccccn2)CC1 (centres unmarked) [Example 31] | 87.2% | 770 nM | > 500 mg/kg |  |  |  |  | 
3 | CCNS(=O)(=O)CCCCCCN1CCN(C(c2ccc(F)cc2)c2ccccn2)CC1 (centres unmarked) [Example 32] | 86.8% | 840 nM | > 500 mg/kg |  |  |  |  | 
4 | CCCNS(=O)(=O)CCCCCCN1CCN(C(c2ccc(F)cc2)c2ccccn2)CC1 (centres unmarked) [Example 39] | 83.8% | 810 nM | > 500 mg/kg |  |  |  |  | 
5 | CCCNS(=O)(=O)CCCCCCCCCCN1CCN(C(c2ccc(F)cc2)c2ccccn2)CC1 (centres unmarked) [Example 42] | 80.2% | 330 nM | > 500 mg/kg |  |  |  |  | 
6 | CC(C)NS(=O)(=O)CCCCCCN1CCN(C(c2ccccc2)c2ccc(Cl)cc2)CC1 (centres unmarked) [Example 43] | 86.5% | 690 nM | > 500 mg/kg |  |  |  |  | 
7 | CC(C)NS(=O)(=O)CCCCCN1CCN(C(c2ccc(F)cc2)c2ccccn2)CC1 (centres unmarked) [Example 45] | 84% | 740 nM | > 500 mg/kg |  |  |  |  | 
8 | CC(C)NS(=O)(=O)CCCCCCCCN1CCN(C(c2ccc(F)cc2)c2ccccn2)CC1 (centres unmarked) [Example 48] | 83.8% | 350 nM | > 500 mg/kg |  |  |  |  | 
9 | O=S(=O)(CCCCCCN1CCN(C(c2ccccc2)c2ccc(Cl)cc2)CC1)NC1CC1 (centres unmarked) [Example 54] | 89.2% | 420 nM | > 500 mg/kg | 19% | 52.4% | 37% | 51.9% | showed strong activity of suppressing the late allergic reaction
10 | O=S(=O)(CCCCCCN1CCN(C(c2ccc(F)cc2)c2ccccn2)CC1)NC1CC1 (centres unmarked) [Example 56] | 94.5% | 440 nM | > 500 mg/kg |  | 15.8% | 3.8% | 34.6% | showed strong activity of suppressing the late allergic reaction
11 | O=S(=O)(CCCCCCN1CCN(C(c2ccccc2)c2ccc(Cl)cc2)CC1)NC1CCCC1 (centres unmarked) [Example 59] | 96.4% | 2900 nM | > 500 mg/kg |  |  |  |  | 
12 | O=S(=O)(CCCCCCN1CCN(C(c2ccc(F)cc2)c2ccccn2)CC1)NC1CCCC1 (centres unmarked) [Example 61] | 89.7% | 310 nM | > 500 mg/kg | 5% |  | 37% | 44.4% | showed strong activity of suppressing the late allergic reaction
13 | CN(C)S(=O)(=O)CCCCCCN1CCN(C(c2ccccc2)c2ccc(Cl)cc2)CC1 (centres unmarked) [Example 64] | 72.5% | 360 nM | > 500 mg/kg |  |  |  |  | 
14 | CN(C)S(=O)(=O)CCCCCCN1CCN(C(c2ccc(F)cc2)c2ccc(F)cc2)CC1 [Example 65] | 74.7% | 430 nM | > 500 mg/kg |  |  |  |  | 
15 | CN(C)S(=O)(=O)CCCCCCN1CCN(C(c2ccncc2)c2ccc(Cl)cc2)CC1 (centres unmarked) [Example 66] | 82.8% | 420 nM | > 500 mg/kg |  |  |  |  | 
16 | CN(C)S(=O)(=O)CCCCCCN1CCN(C(c2ccccc2)c2ccccn2)CC1 (centres unmarked) [Example 67] | 84.1% | 420 nM | > 500 mg/kg |  |  |  |  | 

Row | SMILES | inhibition in vivo at 10 mg/kg [1] | EC50 [2] | mouse acute toxicity (lethal dose) [3] | inhibition in vivo at 0.1 mg/kg [4, 5] | inhibition in vivo at 1 mg/kg [4, 5] | inhibition in vivo at 0.1 mg/kg [4, 6] | inhibition in vivo at 1 mg/kg [4, 6] | suppression of the late allergic reaction (in words) [4]
17 | CN(C)S(=O)(=O)CCCCCCCCN1CCN(C(c2ccccc2)c2ccccc2F)CC1 (centres unmarked) [Example 69] | 88.3% | 150 nM | > 500 mg/kg |  |  |  |  | 
18 | COc1cc(NS(=O)(=O)CCCCCCN2CCN(C(c3ccccc3)c3ccccc3)CC2)cc(OC)c1OC [Example 99] | 72.1% | 1300 nM | > 500 mg/kg |  |  |  |  | 
19 | O=S(=O)(CCCCCCN1CCN(C(c2ccccc2)c2ccc(Cl)cc2)CC1)NCCO (centres unmarked) [Example 101] | 88% | 810 nM | > 500 mg/kg |  |  |  |  | 
20 | NS(=O)(=O)CCCCCCCCCCN1CCN(C(c2ccccc2)c2ccc(Cl)cc2)CC1 (centres unmarked) [Example 104] | 86.7% | 6800 nM | > 500 mg/kg |  |  |  |  | 
21 | CCNS(=O)(=O)CCCCCCCCN1CCN(C(c2ccccc2)c2ccc(Cl)cc2)CC1 (centres unmarked) [Example 108] | 82.2% | 680 nM | > 500 mg/kg |  |  |  |  | 
22 | O=S(=O)(CCCCCCCN1CCN(C(c2ccccc2)c2ccc(Cl)cc2)CC1)NC1CC1 (centres unmarked) [Example 115] | 73.2% | 790 nM | > 500 mg/kg |  |  |  |  | 
23 | O=S(=O)(CCCCCCCCN1CCN(C(c2ccccc2)c2ccc(Cl)cc2)CC1)NC1CC1 (centres unmarked) [Example 116] | 70.2% | 120 nM | > 500 mg/kg |  |  |  |  | 
24 | O=S(=O)(CCCCCCN1CCN(C(c2ccccc2)c2cccc(Cl)c2)CC1)NC1CC1 (centres unmarked) [Example 120] | 93.4% | 700 nM | > 500 mg/kg | 26.1% | 56.5% | 7.1% | 25% | showed strong activity of suppressing the late allergic reaction
25 | O=S(=O)(CCCCCCN1CCN(C(c2ccccc2)c2ccc(F)cc2)CC1)NC1CC1 (centres unmarked) [Example 124] | 88.4% | 200 nM | > 500 mg/kg |  |  |  |  | 
26 | O=S(=O)(CCCCCCN1CCN(C(c2ccccc2)c2ccc(Cl)cc2)CC1)NC1CCC1 (centres unmarked) [Example 128] | 86.1% | 320 nM | > 500 mg/kg | 32% | 28% | 36% | 40% | showed strong activity of suppressing the late allergic reaction
27 | O=S(=O)(CCCCCCCN1CCN(C(c2ccccc2)c2ccc(Cl)cc2)CC1)NC1CCC1 (centres unmarked) [Example 129] | 92.2% | 1800 nM | > 500 mg/kg |  |  |  |  | 
28 | O=S(=O)(CCCCN1CCN(C(c2ccccc2)c2ccc(Cl)cc2)CC1)NC1CCCC1 (centres unmarked) [Example 135] | 74.4% | 1100 nM | > 500 mg/kg |  |  |  |  | 
29 | O=S(=O)(CCCCCN1CCN(C(c2ccccc2)c2ccc(Cl)cc2)CC1)NC1CCCC1 (centres unmarked) [Example 136] | 80.2% | 540 nM | > 500 mg/kg |  |  |  |  | 
30 | O=S(=O)(CCCCCCCN1CCN(C(c2ccccc2)c2ccc(Cl)cc2)CC1)NC1CCCC1 (centres unmarked) [Example 137] | 75.8% | 2200 nM | > 500 mg/kg |  |  |  |  | 
31 | CN(C)S(=O)(=O)CCCCCCCN1CCN(C(c2ccccc2)c2ccc(Cl)cc2)CC1 (centres unmarked) [Example 150] | 89.1% | 350 nM | > 500 mg/kg |  |  |  |  | 
